Drawing on patent US20050090532A1, “Medicinal uses of dihydropyrazoles” (The Procter & Gamble Company, priority 2001, published 2005), this text covers EC50 for 20 molecules.

The subject of the assay is VEGF. Nature of the assay: VEGF-ELISA assay, VEGF secretion from HL-1 cardiomyocyte cell line. Format: cell-based, murine. Particulars: VEGF production; HL-1 cells, 18 hr, 10 concentrations 200 nM to 100 μM; read-out: EC50 (concentration of compound that induces the production of an amount of VEGF equal to half the maximum amount of VEGF induced by the compound). As to the method:
Any compound of the present invention can be screened by a VEGF-ELISA assay. VEGF secretion is assayed in the HL-1 cardiomyocyte cell line as described in Claycomb. W. C., “HL-1 cells: a cardiac muscle cell line that contracts and retains phenotypic characteristics of the adult cardiomyocyte”, Proc. Natl. Acad. Sci U.S.A., Vol. 95, pp. 2979-84 (1998). For experiments, HL-1 cells are plated in 96-well plates at a density of 2×10^4 cells per well in growth medium: EXCEL 320 media (JRH Biosciences, Lenexia, Kans.) plus 10% fetal bovine serum (BioWhitaker), 100 nM retinoic acid (Sigma, St. Louis, Mo.), 10 μM norepinephrine (Sigma), 10 μg/ml insulin (Life Technologies, Grand Island, N.Y.), 1× non-essential amino acid supplement (Life Technologies), 50 μg/ml endothelial cell growth supplement (Upstate Biotechnology, Lake Placid, N.Y.), 100 units/ml penicillin, 100 units/ml streptomycin (Life Technologies). After 24 hrs, the media is replaced with a low-growth media (HL-1 media with 2% fetal bovine serum and without endothelial cell growth supplement) containing test compounds with 0.5% dimethyl sulfoxide (DMSO). After 18 hrs, conditioned media from the treated cells was assayed for VEGF content with a Murine VEGF-ELISA kit (R&D Systems, Minneapolis, Minn.). The amount of VEGF secreted into the media over an 18 hr period is normalized to positive control wells which are treated with a maximally effective concentration (1 mM) of deferoxamine mesylate (Sigma, St. Louis) and are reported as “percent activity,” where the VEGF in unstimulated wells is defined as 0% and the VEGF in wells treated with 1 mM deferoxamine is defined as 100%. Potency is determined by stimulating cells with 10 concentrations of test compounds (200 nM to 100 μM) and fitting the data to a variable slope sigmoidal dose-response curve using GraphPad Prism version 3.00 for Windows 95 (GraphPad Software, San Diego, Calif.). Determinations for each test compound are performed in three separate experiments and the means ± standard deviation of the […] and maximum response are evaluated. Compounds for pharmaceutical use are selected based upon the greatest percent activity.
Turning to `CN1N=C(c2ccccc2O)CC1c1nccs1` (centres unmarked) [Example 11, 2-(1-Methyl-5-thiazol-2-yl-4,5-dihydro-1H-pyrazol-3-yl)-phenol], the EC50 came out at 12 µM.
For `CN(C)c1ccc(C2CC(c3ccccc3)=NN2c2ccccc2)cc1` (centres unmarked) [Example 17, [4-(2,5-Diphenyl-3,4-dihydro-2H-pyrazol-3-yl)-phenyl]-dimethyl-amine], the EC50 was 6 µM.
With `Oc1ccccc1C1=NN(c2nc3ccccc3s2)C(c2ccccc2)C1` (centres unmarked) [Example 4, 2-(1-Benzothiazol-2-yl-5-phenyl-4,5-dihydro-1H-pyrazol-3-yl)-phenol] the figure was 27 µM; with `COc1ccc(C2CC(c3ccc4ccccc4c3)=NN2C)cc1` (centres unmarked) [Example 18, 5-(4-Methoxy-phenyl)-1-methyl-3-naphthalen-2-yl-4,5-dihydro-1H-pyrazole], 11 µM; with `CN1N=C(c2ccccc2O)CC1c1ccccn1` (centres unmarked) [Example 10, 2-(1-Methyl-5-pyridin-2-yl-4,5-dihydro-1H-pyrazol-3-yl)-phenol], 92 µM.
The value for `Cc1ccc(N2N=C(c3ccccn3)CC2c2ccccc2)cc1` (centres unmarked) [Example 14, 2-(5-Phenyl-1-p-tolyl-4,5-dihydro-1H-pyrazol-3-yl)-pyridine] was 2 µM; that for `c1ccc(C2CC(c3ccccn3)=NN2c2ccccc2)cc1` (centres unmarked) [Example 1, 2-(1,5-Diphenyl-4,5-dihydro-1H-pyrazol-3-yl)-pyridine] was 23 µM.
With `c1ccc(C2=NN(c3ccccn3)C(c3ccccc3)C2)cc1` (centres unmarked) [Example 2, 2-(3,5-Diphenyl-4,5-dihydro-pyrazol-1-yl)-pyridine], the EC50 was determined as 6 µM.
The value for `CN1N=C(c2ccc3ccccc3c2)CC1c1ccc(C(F)(F)F)cc1` (centres unmarked) [Example 20, 1-Methyl-3-naphthalen-2-yl-5-(4-trifluoromethyl-phenyl)-4,5-dihydro-1H-pyrazole] was 13 µM.
The value for `N#CCCN1N=C(c2ccccc2O)CC1c1ccccn1` (centres unmarked) [Example 13, 3-[3-(2-Hydroxy-phenyl)-5-pyridin-2-yl-4,5-dihydro-pyrazol-1-yl]-propionitrile] was 18 µM; that for `Oc1ccccc1C1=NN(c2ccccn2)C(c2ccccc2O)C1` (centres unmarked) [Example 9, 2-[5(2-hydroxy-phenyl)-1-pyridin-2-yl-4,5-dihydro-1H-pyrazol-3-yl]-phenol] was 5.4 µM; that for `COc1ccc(C2CC(c3ccccc3O)=NN2c2ccccn2)cc1` (centres unmarked) [Example 6, 2-[5-(4-Methoxy-phenyl)-1-pyridin-2-yl-4,5-dihydro-1H-pyrazol-3-yl]-phenol] was 5.68 µM.
As for `Oc1ccccc1C1=NN(c2ccccn2)C(c2ccccc2)C1` (centres unmarked) [Example 3, 2-(5-Phenyl-1-pyridin-2-yl-4,5-dihydro-1H-pyrazol-3-yl)-phenol], the EC50 was 1.7 µM.
The value for `COc1ccccc1C1CC(c2ccccc2O)=NN1c1ccccn1` (centres unmarked) [Example 7, 2-[5-(2-Methoxy-phenyl)-1-pyridin-2-yl-4,5-dihydro-1H-pyrazol-3-yl]-phenol] was 5.5 µM.
Take `Brc1ccc(N2N=C(c3ccccn3)CC2c2ccccc2)cc1` (centres unmarked) [Example 15, 2-[1-(4-Bromo-phenyl)-5-phenyl-4,5-dihydro-1H-pyrazol-3-yl]-pyridine]: the EC50 was 6.3 µM.
Turning to `Clc1cccc(C2CC(c3ccccn3)=NN2c2ccccc2)c1` (centres unmarked) [Example 16, 2-[5-(3-Chloro-phenyl)-1-phenyl-4,5-dihydro-1H-pyrazol-3-yl]-pyridine], the EC50 came out at 1.7 µM.
The value for `OCCN1N=C(c2ccccc2O)CC1c1ccccn1` (centres unmarked) [Example 12, 2-[1-(2-Hydroxy-ethyl)-5-pyridin-2-yl-4,5-dihydro-1H-pyrazol-3-yl]-phenol] was 65 µM; that for `Cc1ccc(C2CC(c3ccccc3O)=NN2c2ccccn2)cc1` (centres unmarked) [Example 5, 2-(1-Pyridin-2-yl-5-p-tolyl-4,5-dihydro-1H-pyrazol-3-yl)-phenol] was 5.7 µM.
The value for `CN1N=C(c2ccc3ccccc3c2)CC1c1ccc(F)cc1` (centres unmarked) [Example 19, 5-(4-Fluoro-phenyl)-1-methyl-3-naphthalen-2-yl-4,5-dihydro-1H-pyrazole] was 3.6 µM; that for `Oc1ccccc1C1=NN(c2ccccn2)C(c2ccccn2)C1` (centres unmarked) [Example 8, 2-(1,5-Di-pyridin-2-yl-4,5-dihydro-1H-pyrazol-3-yl)-phenol] was 5.4 µM.
